According to paper PMC9031226, “Preclinical Therapeutic Assessment of a New Chemotherapeutics [Dichloro(4,4’-Bis(2,2,3,3-Tetrafluoropropoxy) Methyl)-2,2’-Bipryridine) Platinum] in an Orthotopic Patient-Derived Xenograft Model of Triple-Negative Breast Cancers” (Pharmaceutics, 2022):

Experiments:
MDA-MB-231 [1] = experiment: Western blotting of apoptosis and autophagy markers; assay type: cell-based, human; details: MDA-MB-231, Western blotting
Protocol: Each sample containing 30 μg protein mixture was loaded into a well on SDS-PAGE gel and separated through electrophoresis, followed by protein determination using specific antibodies against PARP (1:1000, Cat. #9542; Cell Signaling Technology, Danvers, MA, USA), GAPDH (1:5000, Cat. GTX100118; GeneTex, Irvine, CA, USA), Bax (1:1000, Cat. ARG65612; Arigo, Glasgow, UK), Bcl-2 (1:1000, Cat. ARG55188; Arigo, Glasgow, UK) and LC3-I/II (1:1000, Cat. #12741; Cell Signaling Technology, Danvers, MA, USA). Primary antibodies were targeted by horseradish peroxidase (HRP) conjugated anti-mouse (1:5000, Cat. A9044, Sigma-Aldrich, Burlington, VT, USA) or anti-rabbit (1:5000, Cat. SI-A0545; Sigma-Aldrich, Burlington, VT, USA) secondary antibodies for visualizing immunoblots. Results were imaged by ChemiDoc system (Bio-Rad Laboratories, Hercules, CA, USA) and semi-quantification was conducted using Image Lab system (Bio-Rad Laboratories, Hercules, CA, USA).

MDA-MB-231 cells = experiment: Cell line-derived xenograft (CDX) model, tumor growth; assay type: in vivo; details: NSG mice
Protocol: The procedures for the establishment of breast cancer-bearing xenograft models were modified from a previous publication and approved by the Taipei Medical University (TMU) Institutional Animal Care and Use Committee (IACUC No. LAC-2020-0175). Overall, 4- to 6-week-old NOD.Cg-PrkdcscidIl2rgtm1Wjl/SzJ (NSG) female mice purchased from National Laboratory Animal Center (Taipei, Taiwan) were housed in specific pathogen-free rooms with ad libitum feeding and 12 h light–dark cycle. After a week of acclimatization, 2 × 10^6 MDA-MB-231 cells suspended in 1:1 ratio of phosphate-buffered saline plus Matrigel® Matrix (Cat. 356237; Corning Inc., New York, NY, USA) were subcutaneously injected on the right flank of each mouse. […] To monitor tumor growth in the models, tumor diameter was measured using an electronic caliper and values were applied on the equation: width^2 × length × 0.52 to estimate their tumor volume. All mice were sacrificed on day 28 after treatment. Plasma, tumors and major organs (heart, liver, kidney, spleen and lung) were collected for toxicity assessment and metastasis evaluation.

MDA-MB-231 [2] = experiment: MTT cell viability assay on MDA-MB-231; assay type: cell-based, human; details: for reduction in cell viability: MDA-MB-231, 20 μM; for IC50: MDA-MB-231, MTT assay, 48 h
Protocol: (§1) Human cancer cell lines, including MDA-MB-231, MCF-7, COLO205 and SK-OV-3, used in this study were purchased from American Type Culture Collection (ATCC, Manassas, VA, USA). All cell cultures were maintained in a 5% CO2-containing incubator at 37 °C. Triple-negative breast cancer cell line MDA-MB-231 and estrogen receptor-positive breast cancer cells MCF-7 were cultured in Dulbecco’s Modified Eagle Medium/Nutrient Mixture F-12 medium (DMEM/F12, Thermo Fisher Scientific Inc., Waltham, MA, USA) supplemented with 1% HyClone Penicillin-Streptomycin 100X solution (Cytiva, Marlborough, MA, USA) and 10% (v/v) fetal bovine serum (Thermo Fisher Scientific Inc., Waltham, MA, USA). COLO205 colon cancer cells and SK-OV-3 ovarian cancer cells were cultured in Roswell Park Memorial Institute (RPMI) 1640 medium (Thermo Fisher Scientific Inc., Waltham, MA, USA) containing the same supplements as described above.
(§2) Cell viability was evaluated using MTT assay. […] A viable cell count was determined by adding MTT reagent (3-(4,5-Dimethyl-2-thiazolyl)-2,5-diphenyl-2H-tetrazolium bromide (MTT; SERVA, Heidelberg, Germany) at a concentration of 5 mg/mL in PBS followed by measurement of the absorbance at 570 nm for each well detected by μQuant™ universal microplate spectrophotometer (BioTek, Winowski, VT, USA). The assessment procedures were followed under the manufacturer’s instructions. The final results were represented as mean values in the same experimental group detected by a microplate reader.

[3] = test system: patient-derived TNBC tumors; experiment: Orthotopic patient-derived xenograft (PDX) model, tumor growth; assay type: in vivo; details: NSG mice
Description: The procedures for the establishment of breast cancer-bearing xenograft models were modified from previous publications and approved by the Taipei Medical University (TMU) Institutional Animal Care and Use Committee (IACUC No. LAC- 2021-0546) and the Joint Institutional Review Board of Taipei Medical University (N201812005). Overall, 4- to 6-week-old NOD.Cg-PrkdcscidIl2rgtm1Wjl/SzJ (NSG) female mice purchased from BioLASCO Taiwan Co., Ltd. (Taipei, Taiwan) were housed in specific pathogen-free rooms with ad libitum feeding and 12 h light–dark cycle. Patient-derived TNBC tumors were microscopically considered for a hypervascular background and frequent mitosis features, and triple-negative results for estrogen receptor, progesterone receptor and human epidermal growth factor receptor 2 (HER2). After a week of acclimatization, patient-derived TNBC tumors dissected into 3 × 3 × 3 mm^3 were implanted using puncture needle in fat pads between the third and fourth mammary glands for each mouse.
Tumor growth curves were generated by measuring tumor diameters and then calculating based on the same equation described above. Finally, the mice were sacrificed on day 23 after the first dose of treatments. Plasma, tumors and major organs (heart, liver, kidney, spleen and lung) were collected for toxicity assessment and metastasis evaluation.

MCF-7 = experiment: MTT cell viability assay on MCF-7; assay type: cell-based, human; details: for reduction in cell viability (antiproliferative effect): MCF-7, 80 μM
Protocol: as §1, §2

STAT3-DN plasmid = experiment: Gel-based electrophoretic mobility shift assay; assay type: binding; details: 24 h, 37 °C
Protocol: Plasmid DNA interacting with platinum-containing compounds was studied using agarose gel electrophoresis to separate DNA fragments dependent on sizes and structures. In total, […] of STAT3-DN plasmid (BIOTOOLS Co., New Taipei City, Taiwan) around 4.8 kb provided by Dr. Chien-Huang Lin was incubated with an equal volume of increasing concentrations of compounds (5~40 µM) at 37 °C for 24 h.

SK-OV-3 = experiment: MTT cell viability assay on SK-OV-3; assay type: cell-based, human; details: for IC50: SK-OV-3, MTT assay, 48 h
Protocol: as §1, §2

[4] = 5 mg/kg i.p. weekly x4, day 28, PBS 1412.72 ± 120.85

SMILES | Bax/Bcl-2 ratio (MDA-MB-231 [1]) | LC3 I conversion to LC3 II (autophagy marker) (MDA-MB-231 [1]) | cleaved form of PARP (MDA-MB-231 [1]) | tumor weight (MDA-MB-231 cells; 5 mg/kg i.p. weekly x4, day 28) | average tumor volume (MDA-MB-231 cells; [4]) | reduction in cell viability (MDA-MB-231 [2]) | IC50 (MDA-MB-231 [2]) | average tumor volume and weight compared among groups ([3]; 5 mg/kg i.v. weekly x4, day 23) | reduction in cell viability (antiproliferative effect) (MCF-7) | IC50 (MCF-7; MCF-7, MTT assay, 48 h) | IC50 Values (MCF-7; MCF-7, MTT assay, 48 h) | breakage of plasmid DNA (nicked or linear forms) (STAT3-DN plasmid) | reduction in cell viability (SK-OV-3; SK-OV-3, 0.625 μM) | reduction in cell viability (SK-OV-3; SK-OV-3, 1.23 μM) | reduction in cell viability (SK-OV-3; SK-OV-3, 2.5 μM) | IC50 (SK-OV-3) | average tumor volume (MDA-MB-231 cells; 2.11 mg/kg i.p. weekly x4, day 28, PBS 1412.72 ± 120.85) | average tumor volume vs. control ([3]; 2.11 or 5 mg/kg i.v. weekly x4)
FC(F)C(F)(F)COCc1ccnc(-c2cc(COCC(F)(F)C(F)F)ccn2)c1.[Cl][Pt][Cl] [TFBPC] | increase in Bax/Bcl-2 ratio | LC3 I conversion to LC3 II | formation of the cleaved form of PARP | ~ 0.3 g | ~413.03 ± 87.50 mm^3 | 88% | 3.86 µM | smallest size in volume | 28% | > 80 µM | resistant | induced single or double breakages of plasmid DNA | 29% | 54% | 78% | 1.92 µM |  | 
N.N.[Cl][Pt][Cl] [CDDP, Cis-diamineplatinum(II) dichloride] |  | could not induce apoptotic and autophagy signaling | failed to induce the formation of the cleaved form of PARP |  | ~540.23 ± 133.20 mm^3 | 10% | > 80 µM |  | 19% | > 80 µM |  | induced single or double breakages of plasmid DNA |  |  |  | 41 µM | around 821.66 ± 133.75 mm^3 | no statistical difference
